Measurements published in PMC12494099, “Discovery and Characterization of Novel IKZF1/3 Glue Degraders against Multiple Hematological Cancer Cell Lines” (Oncology Research, 2025).

Experiments:
Assay type in all cases: cell-based
MOLM-13 = assay: Cell viability (CCK-8) assay; conditions: Homo sapiens, MOLM-13; AML, 96 h; read-out: IC50 (μM) MOLM-13
Outline: (§1)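 Seeding 15,000 cells/well; compounds added; viability read by CCK-8 per kit instructions.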

Ocl-Ly3 = assay: Cell viability (CCK-8) assay; conditions: for IC50: 96 h, CCK-8
Outline: as §1

SU-DHL-4 = assay: Cell viability (CCK-8) assay; conditions: Homo sapiens, SU-DHL-4; DLBCL, 96 h; read-out: IC50 (μM) SU-DHL-4
Outline: as §1

Skm-1 = assay: Cell viability (CCK-8) assay; conditions: Homo sapiens, SKM-1; AML, 96 h; read-out: IC50 (μM) Skm-1
Outline: as §1

U937 = assay: Cell viability (CCK-8) assay; conditions: Homo sapiens, U-937; AML, 96 h; read-out: IC50 (μM) U937
Outline: as §1

CRBN^−/− MV-4-11 cells = assay: Cell viability, CRBN knockout cells; conditions: Homo sapiens, MV4-11, 96 h
Experimental: (§2) Multiple cell lines (NCI-H929, OPM-2, U937, Ocl-Ly3, RPMI-8226, MOLM-13, Skm-1, MUTZ-1, SU-DHL-4, TMD8, U2932, WSU-DLCL-2, MV-4-11 and KG-1 cells) were plated into 96-well plates. The plated at a density of 15,000 cells per well, and each well contained 100 µL of medium. Subsequently, different compounds (MGD-AX, MGD-BX, MGD-CX) were added to each well. These compounds’ concentrations were set at 0, 0.01, 0.033, 0.1, 0.33, 1, 3.3, 10 and 33 μM, and the cells were incubated with the compounds for 96 h. To evaluate the antiproliferative effects of these compounds, the Cell Counting Kit-8 (CCK-8, #CX007, Epizyme, Shanghai, China) was used. All procedures were carried out in strict accordance with the manufacturer’s instructions (Dojindo Laboratories, Mamoto Ken, Japan). The half maximal inhibitory concentrations (IC50) values, which represent the concentrations of the test compounds that can inhibit 50% of cell activity, were calculated using GraphPad Prism 8.0 (GraphPad Software Inc., San Diego, CA, USA).
(§3) […] NCI-H929 and MV-4-11 cells were seeded at a density of 1 × 10^6 cells/well in 6-well tissue culture-treated plates. According to the manufacturer’s protocol (Santa Cruz Biotechnology, Inc, Dallas, TX, USA), CRBN CRISPR/Cas9 knockout Plasmid (#sc-412142), CRBN HDR plasmid (#sc-412142-HDR), UltraCruz® Transfection Reagent (#sc-395739) were pre-mixed in Plasmid Transfection Medium (#sc-108062) at a 1:1:2 mass ratio, and cells were transiently transfected in a 37°C, 5% CO2 incubator. After 72 h of infection, the medium was replaced with complete medium containing 3 μg/mL puromycin for 5–7 days. On day 7, GFP-positive cells were sorted as single cells into 96-well plates. Isolated single-cell clones were screened via western blot analysis, using wild-type NCI-H929 or MV-4-11 cells as positive controls.

CRBN^−/− NCI-H929 cells = assay: Cell viability, CRBN knockout cells; conditions: Homo sapiens, NCI-H929, 96 h
Experimental: as §2, §3

[1] = tested on: control vector MV-4-11 cells; assay: Cell viability, control vector cells; conditions: Homo sapiens, MV4-11, 96 h
Experimental: as §2, §3

[2] = tested on: control vector NCI-H929 cells; assay: Cell viability, control vector cells; conditions: Homo sapiens, NCI-H929, 96 h
Experimental: as §2, §3

[3] = tested on: control vector NCI-H929 cells; assay: Cell apoptosis assay, control vector cells
Experimental: as §3
Cells (NCI-H929 and MV-4-11) were seeded at a density of 1 × 10^6 cells per well into 6-well dishes. […] Apoptosis was assessed using an Annexin V-FITC kit (#ab14085; Abcam, MA, USA) on a FACS Calibur Flow Cytometer (Becton Dickinson, Franklin Lakes, NJ, USA). For cell cycle analysis, cells were fixed in 75% ethanol (−20°C/overnight), washed with PBS (pH = 7.2–7.4, 1×), treated with RNase A (0.2 mg/mL, 37°C/30 min), stained with PI (10 μg/mL), and analyzed on the same instrument. Finally, the samples were analyzed using a FACS Calibur Flow Cytometer.

IKZF2 = IKZF2 (Homo sapiens, UniProt Q9UKS7); assay: Immunoblot analysis of endogenous protein; set-up: endogenous in cells; host or cells: NCI-H929 and MV-4-11; conditions: NCI-H929 and MV-4-11 cells
IKZF2, sequence (Q96SW2 whole entry partner): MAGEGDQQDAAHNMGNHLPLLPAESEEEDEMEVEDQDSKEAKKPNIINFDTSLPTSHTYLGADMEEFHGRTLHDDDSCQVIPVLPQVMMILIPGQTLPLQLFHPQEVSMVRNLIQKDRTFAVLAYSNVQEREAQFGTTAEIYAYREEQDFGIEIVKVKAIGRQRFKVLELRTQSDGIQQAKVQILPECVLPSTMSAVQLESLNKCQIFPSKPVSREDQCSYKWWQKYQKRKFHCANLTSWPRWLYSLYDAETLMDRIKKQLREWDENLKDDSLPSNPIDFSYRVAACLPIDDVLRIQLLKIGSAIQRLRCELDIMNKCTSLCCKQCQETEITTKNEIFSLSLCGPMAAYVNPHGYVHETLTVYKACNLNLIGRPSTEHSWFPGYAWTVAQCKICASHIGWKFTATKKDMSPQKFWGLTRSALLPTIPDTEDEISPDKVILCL
IKZF2, sequence (Q16531 whole entry partner): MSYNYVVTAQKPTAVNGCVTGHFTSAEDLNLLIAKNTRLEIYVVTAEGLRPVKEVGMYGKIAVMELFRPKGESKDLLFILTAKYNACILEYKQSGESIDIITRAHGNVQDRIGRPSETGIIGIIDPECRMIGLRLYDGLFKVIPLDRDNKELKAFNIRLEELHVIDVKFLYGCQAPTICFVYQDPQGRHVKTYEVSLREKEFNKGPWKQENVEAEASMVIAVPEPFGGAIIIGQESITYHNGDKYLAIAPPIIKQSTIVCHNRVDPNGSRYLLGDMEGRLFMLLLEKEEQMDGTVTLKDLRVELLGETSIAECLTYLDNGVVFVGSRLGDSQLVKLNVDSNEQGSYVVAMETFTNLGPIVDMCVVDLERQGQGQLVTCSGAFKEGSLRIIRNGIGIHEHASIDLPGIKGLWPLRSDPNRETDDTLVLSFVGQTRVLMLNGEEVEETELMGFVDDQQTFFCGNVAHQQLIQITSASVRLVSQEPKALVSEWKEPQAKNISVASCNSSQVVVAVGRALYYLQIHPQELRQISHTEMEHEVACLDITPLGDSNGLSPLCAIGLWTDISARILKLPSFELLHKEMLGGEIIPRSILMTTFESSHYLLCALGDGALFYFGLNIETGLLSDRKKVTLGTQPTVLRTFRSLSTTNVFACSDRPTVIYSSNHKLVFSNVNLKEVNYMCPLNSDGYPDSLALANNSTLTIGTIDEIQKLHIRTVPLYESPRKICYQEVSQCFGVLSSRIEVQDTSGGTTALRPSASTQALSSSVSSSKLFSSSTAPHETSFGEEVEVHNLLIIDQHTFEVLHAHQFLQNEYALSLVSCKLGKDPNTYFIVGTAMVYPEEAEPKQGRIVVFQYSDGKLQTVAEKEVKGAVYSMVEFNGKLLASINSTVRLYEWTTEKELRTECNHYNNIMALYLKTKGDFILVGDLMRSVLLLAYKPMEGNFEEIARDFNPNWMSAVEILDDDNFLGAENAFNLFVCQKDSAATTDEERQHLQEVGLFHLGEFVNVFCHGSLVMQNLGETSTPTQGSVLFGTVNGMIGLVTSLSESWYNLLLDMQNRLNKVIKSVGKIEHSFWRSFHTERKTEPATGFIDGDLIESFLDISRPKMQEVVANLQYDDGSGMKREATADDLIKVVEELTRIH
IKZF2, sequence (Q9UKS7 whole entry): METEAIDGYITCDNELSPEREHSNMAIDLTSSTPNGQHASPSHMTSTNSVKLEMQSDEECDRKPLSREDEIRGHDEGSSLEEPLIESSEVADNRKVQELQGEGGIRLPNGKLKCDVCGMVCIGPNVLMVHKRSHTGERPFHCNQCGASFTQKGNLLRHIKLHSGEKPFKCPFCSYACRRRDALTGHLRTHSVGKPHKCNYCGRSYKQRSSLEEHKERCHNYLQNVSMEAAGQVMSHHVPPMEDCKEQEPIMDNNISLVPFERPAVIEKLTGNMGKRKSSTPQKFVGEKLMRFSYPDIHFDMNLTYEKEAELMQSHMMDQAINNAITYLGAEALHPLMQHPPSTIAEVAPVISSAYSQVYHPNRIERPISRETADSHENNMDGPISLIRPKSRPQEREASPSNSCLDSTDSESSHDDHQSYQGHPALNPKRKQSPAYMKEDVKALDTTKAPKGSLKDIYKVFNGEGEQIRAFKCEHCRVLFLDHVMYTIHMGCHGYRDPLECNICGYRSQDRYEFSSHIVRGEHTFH
Experimental: Cells (NCI-H929 and MV-4-11) were plated into 6-well plates. They were then treated with different concentrations (0, 0.01, 0.1, 1, 10 μM) of the compounds (MGD-A7, MGD-C9) or the designated time periods. Afterward, the cells were washed with phosphate-buffered saline (PBS, pH = 7.2–7.4, 1×). Next, they were lysed using RIPA buffer (#R0278-500ML, Sigma-Aldrich, MO, USA), and the cell lysates were precisely measured. Following this, the total protein lysates underwent 10% sodium dodecyl sulfate-polyacrylamide gel electrophoresis (SDS-PAGE). This method efficiently separated the proteins based on their molecular weights. Subsequently, the separated proteins were transferred onto a nitrocellulose membrane (#HATF00010, […], Madison, WI, USA). The membranes were then successively incubated with the indicated primary antibodies. […] The chemiluminescent signal was detected, and membrane images were captured with an Imaging system (Bio-Rad, Hercules, CA, USA). ImageJ analysis software (V1.8.0.112, National Institutes of Health, NIH, Bethesda, MD, USA) was employed to analyze the intensity of protein bands, aiming to quantify the relative expression levels of the target proteins. The half-maximal degradation concentration (DC50) value, which indicates the concentrations of test compounds showing 50% protein degradation efficacy, was calculated using GraphPad Prism 8.0.

IC50 (MOLM-13) [µM]	IC50 (SU-DHL-4) [µM]	IC50 (U937) [µM]	IC50 (CRBN^−/− MV-4-11 cells) [µM]	IC50 (CRBN^−/− NCI-H929 cells) [µM]	IC50 [1] [nM]	IC50 [2] [nM]	degradation on IKZF2 (IKZF2)	SMILES	IC50 (Ocl-Ly3) [µM]	IC50 (Skm-1) [µM]	apoptosis (in words) [3]	times stronger antiproliferative activity than avadomide (Ocl-Ly3; Ocl-Ly3 cells)
19.3	10.3	3.83	> 33	> 33	676	638	minimal degradation	CN1CCN(Cc2cccc(C(=O)NC3CCC(=O)NC3=O)c2)CC1 (centres unmarked) [MGD-A7, N-(2,6-dioxopiperidin-3-yl)-3-((4-methylpiperazin-1-yl)methyl)benzamide]	2.32 ± 0.22	4.03	induced significant apoptosis	
9.11	7.37	1.24	> 33	> 33	198	313	minimal degradation	CN1CCN(Cc2cccc(C(=O)NC3CCC(=O)NC3=O)c2F)C(=O)C1 (centres unmarked) [MGD-C9, N-(2,6-dioxopiperidin-3-yl)-2-fluoro-3-((4-methyl-2-oxopiperazin-1-yl)methyl)benzamide]	0.81 ± 0.09	2.03	induced significant apoptosis	approximately 20 times
